Among the data in ChEMBL document CHEMBL5291721, “A preclinical secondary pharmacology resource illuminates target-adverse drug reaction associations of marketed drugs” (Nat Commun, 2023) are AC50 values, retold here.

Experiment [1] has as its target Voltage-dependent N-type calcium channel subunit alpha-1B (Rattus norvegicus, UniProt Q02294). Format: functional.
The target in experiment [2] is T1, 5-hydroxytryptamine receptor 1A (Homo sapiens, UniProt P08908).
T1 sequence (P08908 whole entry): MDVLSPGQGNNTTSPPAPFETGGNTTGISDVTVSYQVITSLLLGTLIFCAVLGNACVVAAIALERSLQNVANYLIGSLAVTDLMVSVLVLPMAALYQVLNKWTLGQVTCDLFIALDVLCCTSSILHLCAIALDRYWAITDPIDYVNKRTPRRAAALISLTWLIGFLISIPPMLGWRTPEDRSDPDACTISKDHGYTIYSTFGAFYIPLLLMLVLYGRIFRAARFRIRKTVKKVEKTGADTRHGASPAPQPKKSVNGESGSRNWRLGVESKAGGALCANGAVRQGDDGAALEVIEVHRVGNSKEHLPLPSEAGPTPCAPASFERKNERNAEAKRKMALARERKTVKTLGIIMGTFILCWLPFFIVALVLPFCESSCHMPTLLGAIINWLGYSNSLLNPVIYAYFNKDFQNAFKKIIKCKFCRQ

Experiment [3] concerns the target T2, Alpha-1A adrenergic receptor (Homo sapiens, UniProt P35348).
T2 sequence (P35348 whole entry): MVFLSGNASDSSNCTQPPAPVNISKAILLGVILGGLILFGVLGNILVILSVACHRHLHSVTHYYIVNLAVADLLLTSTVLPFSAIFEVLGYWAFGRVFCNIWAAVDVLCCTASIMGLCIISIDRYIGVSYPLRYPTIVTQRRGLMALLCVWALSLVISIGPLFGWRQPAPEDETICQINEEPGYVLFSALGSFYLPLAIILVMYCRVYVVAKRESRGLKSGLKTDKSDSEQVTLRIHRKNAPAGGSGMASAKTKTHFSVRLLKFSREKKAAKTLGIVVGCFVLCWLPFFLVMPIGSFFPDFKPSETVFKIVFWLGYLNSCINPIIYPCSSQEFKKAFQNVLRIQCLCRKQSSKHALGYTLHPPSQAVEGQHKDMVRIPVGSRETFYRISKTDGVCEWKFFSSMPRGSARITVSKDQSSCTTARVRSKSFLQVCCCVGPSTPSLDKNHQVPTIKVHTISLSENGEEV

In another experiment the target is Substance-P receptor (Homo sapiens, UniProt P25103).
Sequence of Substance-P receptor (P25103 whole entry): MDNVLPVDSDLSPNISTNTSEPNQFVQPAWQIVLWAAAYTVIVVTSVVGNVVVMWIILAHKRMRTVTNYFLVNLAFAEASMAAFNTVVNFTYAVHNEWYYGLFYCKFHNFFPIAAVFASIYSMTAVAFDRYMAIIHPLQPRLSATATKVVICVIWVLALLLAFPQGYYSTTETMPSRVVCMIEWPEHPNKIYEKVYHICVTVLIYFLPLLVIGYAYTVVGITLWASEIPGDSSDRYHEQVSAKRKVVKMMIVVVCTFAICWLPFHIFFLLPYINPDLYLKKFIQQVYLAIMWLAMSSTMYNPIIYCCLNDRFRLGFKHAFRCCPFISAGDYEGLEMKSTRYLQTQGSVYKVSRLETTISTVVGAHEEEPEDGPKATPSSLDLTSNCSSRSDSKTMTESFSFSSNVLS
Experiment [4] concerns the target Gamma-aminobutyric acid receptor subunit alpha-1 (Rattus norvegicus, UniProt P62813).
For another experiment, the target named is T3, Androgen receptor (Rattus norvegicus, UniProt P15207).
T3 sequence (P15207 whole entry): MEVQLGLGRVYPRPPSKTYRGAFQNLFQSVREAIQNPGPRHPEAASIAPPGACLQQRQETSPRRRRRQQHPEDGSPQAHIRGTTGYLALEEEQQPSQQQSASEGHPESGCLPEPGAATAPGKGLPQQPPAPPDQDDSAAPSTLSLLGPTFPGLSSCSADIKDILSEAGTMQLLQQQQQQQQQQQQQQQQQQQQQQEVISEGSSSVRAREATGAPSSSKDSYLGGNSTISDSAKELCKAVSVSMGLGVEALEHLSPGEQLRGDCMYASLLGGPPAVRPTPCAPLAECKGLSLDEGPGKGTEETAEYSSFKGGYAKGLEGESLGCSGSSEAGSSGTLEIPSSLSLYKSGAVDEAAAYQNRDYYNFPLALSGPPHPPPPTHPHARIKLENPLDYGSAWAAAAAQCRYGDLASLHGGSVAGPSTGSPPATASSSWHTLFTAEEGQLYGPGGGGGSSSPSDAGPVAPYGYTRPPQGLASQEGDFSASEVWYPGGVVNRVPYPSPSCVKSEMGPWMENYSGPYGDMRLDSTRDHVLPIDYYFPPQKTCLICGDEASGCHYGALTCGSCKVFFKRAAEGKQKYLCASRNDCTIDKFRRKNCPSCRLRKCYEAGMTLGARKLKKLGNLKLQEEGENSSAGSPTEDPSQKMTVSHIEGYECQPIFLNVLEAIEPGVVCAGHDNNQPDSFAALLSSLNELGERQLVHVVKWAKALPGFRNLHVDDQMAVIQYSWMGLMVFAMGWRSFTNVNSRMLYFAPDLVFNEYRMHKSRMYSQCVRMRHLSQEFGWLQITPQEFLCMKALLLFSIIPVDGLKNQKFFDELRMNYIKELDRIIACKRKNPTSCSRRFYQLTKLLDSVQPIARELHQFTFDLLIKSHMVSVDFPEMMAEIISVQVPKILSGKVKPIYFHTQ
The class given is functional.

The target in experiment [5] is T4, Peroxisome proliferator-activated receptor gamma (Homo sapiens, UniProt P37231).
T4 sequence (P37231 whole entry): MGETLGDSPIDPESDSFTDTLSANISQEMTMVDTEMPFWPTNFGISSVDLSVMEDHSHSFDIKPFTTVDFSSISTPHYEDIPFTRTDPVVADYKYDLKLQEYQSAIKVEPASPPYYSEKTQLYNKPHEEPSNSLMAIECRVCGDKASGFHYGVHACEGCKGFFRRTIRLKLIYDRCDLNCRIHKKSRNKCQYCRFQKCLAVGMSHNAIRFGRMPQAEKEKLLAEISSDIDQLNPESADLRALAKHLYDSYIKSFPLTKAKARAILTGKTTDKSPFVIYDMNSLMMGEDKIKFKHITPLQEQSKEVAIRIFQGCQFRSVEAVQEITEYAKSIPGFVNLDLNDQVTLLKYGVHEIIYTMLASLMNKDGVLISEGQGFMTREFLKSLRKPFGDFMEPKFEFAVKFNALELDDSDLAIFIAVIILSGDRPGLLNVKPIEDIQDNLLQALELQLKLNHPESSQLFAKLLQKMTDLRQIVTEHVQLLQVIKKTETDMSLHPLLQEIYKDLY
Format: functional.

A word on the AC50: it is the concentration giving half of the maximal activity seen.
Further: assay procedure not described here.

Sequence of Gamma-aminobutyric acid receptor subunit alpha-1 (P62813 whole entry): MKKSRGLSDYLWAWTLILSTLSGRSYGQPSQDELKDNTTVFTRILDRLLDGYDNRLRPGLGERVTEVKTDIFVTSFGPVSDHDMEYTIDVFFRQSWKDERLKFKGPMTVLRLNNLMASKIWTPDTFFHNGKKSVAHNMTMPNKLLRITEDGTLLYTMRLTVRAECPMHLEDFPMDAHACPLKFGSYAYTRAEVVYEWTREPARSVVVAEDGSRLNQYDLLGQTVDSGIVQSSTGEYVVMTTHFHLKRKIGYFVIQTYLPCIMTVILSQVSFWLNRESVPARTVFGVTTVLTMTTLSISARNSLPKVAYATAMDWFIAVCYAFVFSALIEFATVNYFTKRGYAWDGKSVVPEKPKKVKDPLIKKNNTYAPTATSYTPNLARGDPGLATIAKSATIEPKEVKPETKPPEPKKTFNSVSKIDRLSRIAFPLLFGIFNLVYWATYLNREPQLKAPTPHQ
Sequence of Voltage-dependent N-type calcium channel subunit alpha-1B (Q02294 whole entry): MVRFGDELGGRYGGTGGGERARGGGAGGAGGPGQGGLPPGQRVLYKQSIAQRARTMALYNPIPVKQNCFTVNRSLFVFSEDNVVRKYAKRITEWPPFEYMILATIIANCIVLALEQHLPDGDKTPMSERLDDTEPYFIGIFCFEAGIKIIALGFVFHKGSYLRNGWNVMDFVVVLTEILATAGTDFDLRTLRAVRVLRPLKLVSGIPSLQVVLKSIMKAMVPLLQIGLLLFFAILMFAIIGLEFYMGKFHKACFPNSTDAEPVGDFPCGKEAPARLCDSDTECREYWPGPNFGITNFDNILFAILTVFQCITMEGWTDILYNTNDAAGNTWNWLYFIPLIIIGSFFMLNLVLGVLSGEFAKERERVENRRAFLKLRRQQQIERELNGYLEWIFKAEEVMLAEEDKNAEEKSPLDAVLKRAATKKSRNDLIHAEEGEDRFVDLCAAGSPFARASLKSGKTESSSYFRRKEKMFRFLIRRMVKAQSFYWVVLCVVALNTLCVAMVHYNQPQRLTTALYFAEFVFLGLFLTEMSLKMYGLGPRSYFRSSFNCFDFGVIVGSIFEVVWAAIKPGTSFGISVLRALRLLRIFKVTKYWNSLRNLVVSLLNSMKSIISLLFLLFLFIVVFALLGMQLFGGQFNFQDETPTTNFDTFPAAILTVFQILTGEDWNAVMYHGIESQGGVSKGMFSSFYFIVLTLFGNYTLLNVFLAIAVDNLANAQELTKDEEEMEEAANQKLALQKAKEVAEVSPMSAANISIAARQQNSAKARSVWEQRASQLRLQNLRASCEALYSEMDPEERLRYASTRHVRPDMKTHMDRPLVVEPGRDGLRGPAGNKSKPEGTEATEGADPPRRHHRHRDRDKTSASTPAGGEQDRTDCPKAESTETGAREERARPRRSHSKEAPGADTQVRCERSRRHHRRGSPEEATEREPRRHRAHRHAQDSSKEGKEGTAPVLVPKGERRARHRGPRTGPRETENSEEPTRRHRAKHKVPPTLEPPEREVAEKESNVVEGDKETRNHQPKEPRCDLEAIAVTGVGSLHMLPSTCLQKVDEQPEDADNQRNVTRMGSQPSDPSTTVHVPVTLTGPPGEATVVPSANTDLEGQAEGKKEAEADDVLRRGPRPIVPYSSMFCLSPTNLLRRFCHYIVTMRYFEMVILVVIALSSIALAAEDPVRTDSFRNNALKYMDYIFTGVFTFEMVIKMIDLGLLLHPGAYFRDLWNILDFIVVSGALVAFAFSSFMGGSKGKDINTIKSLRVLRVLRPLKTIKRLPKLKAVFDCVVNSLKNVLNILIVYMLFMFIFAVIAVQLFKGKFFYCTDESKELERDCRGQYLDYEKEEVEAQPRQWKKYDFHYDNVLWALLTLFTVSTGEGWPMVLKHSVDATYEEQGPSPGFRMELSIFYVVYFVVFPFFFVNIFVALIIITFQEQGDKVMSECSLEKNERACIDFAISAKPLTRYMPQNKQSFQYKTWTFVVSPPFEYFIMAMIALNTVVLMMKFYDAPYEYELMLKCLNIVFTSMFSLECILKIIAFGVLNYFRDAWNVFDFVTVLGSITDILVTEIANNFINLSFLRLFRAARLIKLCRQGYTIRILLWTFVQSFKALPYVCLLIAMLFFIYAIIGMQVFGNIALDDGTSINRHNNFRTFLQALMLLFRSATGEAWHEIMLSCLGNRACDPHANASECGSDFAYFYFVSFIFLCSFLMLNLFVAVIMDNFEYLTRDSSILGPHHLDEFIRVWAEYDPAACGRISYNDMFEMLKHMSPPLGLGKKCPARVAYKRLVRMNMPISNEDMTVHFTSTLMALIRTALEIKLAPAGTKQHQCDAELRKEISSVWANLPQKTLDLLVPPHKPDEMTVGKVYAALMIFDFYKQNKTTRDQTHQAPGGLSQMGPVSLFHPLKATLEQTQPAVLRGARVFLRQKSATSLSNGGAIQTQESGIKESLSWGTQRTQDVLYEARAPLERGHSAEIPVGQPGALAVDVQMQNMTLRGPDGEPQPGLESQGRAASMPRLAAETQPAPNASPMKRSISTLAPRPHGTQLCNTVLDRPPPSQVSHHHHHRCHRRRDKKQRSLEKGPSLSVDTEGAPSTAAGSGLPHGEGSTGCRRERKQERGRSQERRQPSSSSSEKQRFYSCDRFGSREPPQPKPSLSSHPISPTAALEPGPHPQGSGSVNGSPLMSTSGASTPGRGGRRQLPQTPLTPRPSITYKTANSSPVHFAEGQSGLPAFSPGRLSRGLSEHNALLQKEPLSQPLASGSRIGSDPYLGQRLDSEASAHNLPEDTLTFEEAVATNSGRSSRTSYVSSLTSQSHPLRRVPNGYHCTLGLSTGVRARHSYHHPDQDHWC

As for `CC(C(=O)O)c1ccc(N2CC=CC2)c(Cl)c1` (centres undefined) [PIRPROFEN], the AC50 (in experiment [1]; in experiment [2]; in experiment [3]; at Substance-P receptor) was > 10 µM throughout.

In the case of `CC(=O)OC[C@H]1O[C@@H](n2ccc(=O)[nH]c2=O)[C@H](OC(C)=O)[C@@H]1OC(C)=O` [URIDINE TRIACETATE], in experiment [4], the concentration at half-maximal activity (AC50) is > 30 µM.

Turning to `COc1ccc2c(c1)C(=O)N(CCc1ccc(S(=O)(=O)NC(=O)NC3CCCCC3)cc1)C(=O)C2(C)C` [GLIQUIDONE], the concentration at half-maximal activity (AC50) on Androgen receptor is > 30 µM.

In the case of `O=C1c2c(O)c(=O)ccn2N([C@@H]2c3ccccc3SCc3c2ccc(F)c3F)[C@@H]2COCCN12` [BALOXAVIR], in experiment [4], the AC50 was > 30 µM.

With `CC(=O)OCC(=O)[C@@]1(O)CC[C@H]2[C@@H]3CCC4=CC(=O)CC[C@]4(C)[C@H]3C(=O)C[C@@]21C` [CORTISONE ACETATE], the AC50 in experiment [4] was > 30 µM.

For the molecule `CC(=O)Oc1c(C)cc(OCC(O)CNC(C)C)c(C)c1C` (centres undefined) [METIPRANOLOL], the AC50 in experiment [4] was > 30 µM.

As for `C#C[C@]1(O)CC[C@H]2[C@@H]3CCc4cc(O)ccc4[C@H]3CC[C@@]21C` [ETHINYL ESTRADIOL], the half-maximal activity concentration (AC50) in experiment [1] was > 10 µM; in experiment [2] it was > 10 µM; in experiment [4], > 30 µM; in experiment [3], > 10 µM; on Substance-P receptor, > 10 µM.

`O=C1CC[C@@]2(O)[C@H]3Cc4ccc(O)c5c4[C@@]2(CCN3CC2CC2)[C@H]1O5` [NALTREXONE]: in experiment [4], the concentration at half-maximal activity (AC50) is > 30 µM.

For the molecule `CCCS(=O)(=O)Nc1ccc(F)c(C(=O)c2c[nH]c3ncc(-c4ccc(Cl)cc4)cc23)c1F` [VEMURAFENIB], the AC50 at Androgen receptor is > 30 µM.

Consider `Cc1cc2c(cc1CC(=O)c1sccc1S(=O)(=O)Nc1onc(C)c1Cl)OCO2` [SITAXENTAN], for which, in experiment [4], the AC50 was > 30 µM.

In the case of `CCC(=O)O[C@H]1[C@H](O[C@@H]2[C@@H](C)[C@H](O[C@H]3C[C@@](C)(OC)[C@@H](O)[C@H](C)O3)[C@@H](C)C(=O)O[C@H](CC)[C@@](C)(O)[C@H](O)[C@@H](C)C(=O)[C@H](C)C[C@@]2(C)O)O[C@H](C)C[C@@H]1N(C)C` [ERYTHROMYCIN PROPIONATE], the AC50 in experiment [4] is > 30 µM.

For `CCN(CC)CCNC(=O)c1cc(Cl)c(N)cc1OC` [METOCLOPRAMIDE], the AC50 (in experiment [1]; in experiment [2]; in experiment [3]; on Substance-P receptor) was > 10 µM each time.

Regarding `CN(C)CCCN1c2ccccc2CCc2ccc(Cl)cc21` [CLOMIPRAMINE], the concentration at half-maximal activity (AC50) in experiment [1] and in experiment [2] was > 10 µM in each case.

For `CN(CCOc1ccc(NS(C)(=O)=O)cc1)CCc1ccc(NS(C)(=O)=O)cc1` [DOFETILIDE], the AC50 (in experiment [1]; in experiment [2]; in experiment [3]; on Substance-P receptor) was > 10 µM in each case.

On to `OCc1cc([C@@H](O)CNCCCCCCOCCOCc2c(Cl)cccc2Cl)ccc1O` [VILANTEROL], for which the concentration at half-maximal activity (AC50) (at Androgen receptor; in experiment [5]) was > 30 µM in each case.

In the case of `OCCN1CCN(CCCN2c3ccccc3C=Cc3ccccc32)CC1` [OPIPRAMOL], the values for the concentration at half-maximal activity (AC50) in experiment [4], in experiment [3] and in experiment [5] were > 30 µM, 1.41 µM and > 30 µM, respectively.

For `O=C1c2ccccc2C(=O)C1C(=O)C(c1ccccc1)c1ccccc1` [DIPHENADIONE], the AC50 in experiment [4] was > 30 µM.

With `OC[C@@H](O)[C@@H](O)[C@H](O)[C@H](O)CO` [MANNITOL], the half-maximal activity concentration (AC50) in experiment [4] is > 30 µM.

With `COC(=O)[C@@H]1CC2=CC(=O)CC[C@]2(C)[C@@]23O[C@@H]2C[C@@]2(C)[C@@H](CC[C@@]24CCC(=O)O4)[C@H]13` [EPLERENONE], the figures for the half-maximal activity concentration (AC50) in experiment [1], in experiment [2] and in experiment [5] were > 10 µM, > 10 µM and > 30 µM, respectively.

In the case of `COC(=O)N[C@H](C(=O)N1CCC[C@H]1c1nc(-c2ccc(-c3ccc(-c4c[nH]c([C@@H]5CCCN5C(=O)[C@@H](NC(=O)OC)C(C)C)n4)cc3)cc2)c[nH]1)C(C)C`, the AC50 at Androgen receptor is > 30 µM.

In the case of `CC(N)Cc1ccccc1` (centres undefined) [AMPHETAMINE], the AC50 in experiment [1] is > 10 µM; in experiment [2], > 10 µM; at Androgen receptor it was > 30 µM; in experiment [5], > 30 µM.

As to `NC1=NC(=O)C(c2ccccc2)O1` (centres undefined) [PEMOLINE], in experiment [2], the AC50 is > 10 µM.

As to `N[C@@H](C(=O)N[C@@H]1C(=O)N2C(C(=O)O)=C(Cl)CS[C@H]12)c1ccccc1` [CEFACLOR ANHYDROUS], the half-maximal activity concentration (AC50) in experiment [5] was > 30 µM.

`Cc1ccc(O)c2ncccc12` [TILIQUINOL]: in experiment [4], the concentration at half-maximal activity (AC50) is > 30 µM.

As to `O=C(NC[C@H]1CN(c2ccc(N3CCOCC3=O)cc2)C(=O)O1)c1ccc(Cl)s1` [RIVAROXABAN], the AC50 in experiment [4] was > 30 µM.

For the molecule `CS(=O)(=O)c1ccc([C@@H](O)[C@@H](CO)NC(=O)C(Cl)Cl)cc1` [THIAMPHENICOL], the half-maximal activity concentration (AC50) in experiment [4] is > 30 µM.

`NC(=O)c1ncn([C@@H]2O[C@H](CO)[C@@H](O)[C@H]2O)c1O` [MIZORIBINE]: the half-maximal activity concentration (AC50) in experiment [5] was > 30 µM.

With `CC(C)NCC(O)COc1ccc(COCCOC(C)C)cc1` (centres undefined) [BISOPROLOL], the AC50 (in experiment [1]; in experiment [2]; in experiment [3]; at Substance-P receptor) was > 10 µM throughout.

As for `Cc1cccc(C)c1OCC(C)N` (centres undefined) [MEXILETINE], the AC50 in experiment [5] was > 30 µM.

For the molecule `C#C[C@]1(O)CC[C@H]2[C@@H]3CCC4=CC(=O)CC[C@@H]4[C@H]3CC[C@@]21CC` [LEVONORGESTREL], the half-maximal activity concentration (AC50) in experiment [4] came out at 3.44 µM.

As for `CC(=O)c1ccc2c(c1)N(CCCN1CCN(CCO)CC1)c1ccccc1S2` [ACETOPHENAZINE], the AC50 in experiment [5] is > 30 µM.

Regarding `CN1CCCC(CN2c3ccccc3Sc3ccccc32)C1` (centres undefined) [MEPAZINE], in experiment [4], the AC50 was > 30 µM.

Turning to `C(=N\NC1=NCCN1)/c1c2ccccc2c(/C=N/NC2=NCCN2)c2ccccc12` [BISANTRENE], the half-maximal activity concentration (AC50) in experiment [4] is > 30 µM.

As for `CN1CCCC(n2nc(Cc3ccc(Cl)cc3)c3ccccc3c2=O)CC1` (centres undefined) [AZELASTINE], the AC50 in experiment [5] is > 30 µM.

As for `CCC[C@@H]1C[C@@H](C(=O)N[C@@H]([C@H]2O[C@H](SC)[C@H](O)[C@@H](O)[C@H]2O)[C@H](C)Cl)N(C)C1` [CLINDAMYCIN], the half-maximal activity concentration (AC50) (in experiment [1]; in experiment [2]; in experiment [3]; on Substance-P receptor) was > 10 µM each time.

For `CC[C@H](C)C(=O)O[C@H]1C[C@H](O)C=C2C=C[C@H](C)[C@H](CC[C@@H](O)C[C@@H](O)CC(=O)O)[C@H]21` [PRAVASTATIN], the half-maximal activity concentration (AC50) in experiment [5] was > 30 µM.
